Assay results reported in patent EP1210336B1, “SUBSTITUTED BENZIMIDAZOLES AS NON-NUCLEOSIDE INHIBITORS OF REVERSE TRANSCRIPTASE” (THE UNITED STATES OF AMERICA, as represented by the …, priority 1999, dated 2001).
Where two headings read alike, the source gives them in different places.

Experiments:
NL4-3 (WT) = assay: Cytopathic cell killing assay, cross-resistance profile, infected MT-4 cells; assay type: cell-based, HIV-1
Excerpt: (§1) The various HIV isolates tested in the Figures are those corresponding to wild-type virus (NL4-3) and the other strains listed by their RT mutations. The three 4xAZT isolates included in the Figures represent AZT drug-resistant variants. For example, the 4xAZT/L100I isolate has five mutations: four mutations confer increased resistance to AZT, and the other mutation is located within the NNRTI binding pocket. TZB and nevir. (nevirapine) are two well-known NNRTIs, included in this experiment for comparison purposes. […]
(§2) In this Example, the antiviral and cellular toxicity of NNRTIs was investigated, using the cytopathic cell killing assay described by Yang (Yang et al., "Characteristics of a Group of Non-nucleoside Reverse Transcriptase Inhibitors with Structural Diversity and Potent Anti-Human Immunodeficiency Virus Activity," Leukemia 9:S75-S85 [1995]). Briefly, in this method cells (e.g., the CEM-SS cell line, available from the NIAID AIDS Research and Reference Program [ARRRP]) were seeded at a density of 5 x 10^3 cells/well, into the wells of a 96-well microtiter plate. The cells were then infected with HIV virus (either mutant or WT), at a multiplicity of infection (MOI) previously determined to provide complete cell killing by 6 days of culture post-infection (e.g., MOI of 0.01-0.05). Each of the HIV isolates was pre-titered to induce equivalent levels of infection based on cell killing or virus production, prior to their use in these assays. A range of test compound concentrations was added to the wells in triplicate (e.g., serial half-log dilutions) to evaluate inhibition of HIV infection. Controls for each assay included drug controls (drug colorimetric control wells), drug cytotoxicity control wells (cells with drug), virus control wells (cells with virus), and cell viability controls (cells only). Positive control drugs (e.g., AZT and ddC) were also run in parallel.
(§3) After six days of incubation at 37°C, cell viability was determined spectrophotometrically at 450 nm for each well, using the metabolic reduction of XTT to a soluble colored formazan. (See, Gartner and Popovic, "Virus Isolation and Production, in Aldovini and Walker (eds.), Techniques in HIV Research, Stockton Press, NY, pp. […] [1991]; and Nara and Fischinger, "Quantitative Infectivity Assay for HIV-1 and HIV-2," Nature 332:469-470 [1988]).
(§4) The in vitro therapeutic index (TI50) was defined as the fold-difference between the EC50 and IC50. The results for the various compounds are included in Figures 8 and 19.

HIV-1 variant L100I = assay: as above; assay type: cell-based
Excerpt: as §1, §2, §3, §4

HIV-1 variant L74V = assay: as above; assay type: cell-based
Excerpt: as §1, §2, §3, §4

HIV-1 variant Y188C = assay: as above; assay type: cell-based
Excerpt: as §1, §2, §3, §4

HIV-1 variant V179D = assay: as above; assay type: cell-based; settings: isolate V179D
Excerpt: as §1, §2, §3, §4

HIV-1 variant K101E = assay: as above; assay type: cell-based
Excerpt: as §1, §2, §3, §4

HIV-1 variant V108I = assay: as above; assay type: cell-based
Excerpt: as §1, §2, §3, §4

HIV-1 variant K103N = assay: as above; assay type: cell-based; settings: for EC50: isolate K103N
Excerpt: as §1, §2, §3, §4

HIV-1 variant V106A = assay: as above; assay type: cell-based
Excerpt: as §1, §2, §3, §4

HIV-1 variant A98G = assay: as above; assay type: cell-based
Excerpt: as §1, §2, §3, §4

HIV-1 variant Y181C = assay: as above; assay type: cell-based; settings: isolate Y181C
Excerpt: as §1, §2, §3, §4

HIV-1 WT RT = molecular target: T1, HIV-1 WT RT (Human immunodeficiency virus type 1 group M subtype B, UniProt P03366); assay: biochemical; settings: for IC50: read-out: IC50
T1 construct: purified RT protein (0.015 mg/mL) was incubated in a 100 µL reaction mixture

WT virus (NL4-3) = assay: microbe, parasite or virus in culture; assay type: cell-based, HIV-1; settings: for EC50: read-out: EC50
Description: Evaluation of these compounds for the inhibition of HIV-1 was determined as the fifty percent cell culture inhibitory concentration (CIC50) in CEMSS cell culture with WT virus (NL4-3).
as §2, §3, §4

[1] = test system: HIV-1 isolate 4xAZT/Y181C; assay: Cytopathic cell killing assay, cross-resistance profile, infected MT-4 cells; assay type: cell-based; settings: isolate 4XAZT /Y181C
Excerpt: as §1, §2, §3, §4

HIV-1 isolate 4xAZT = assay: as above; assay type: cell-based; settings: isolate 4XAZT
Excerpt: as §1, §2, §3, §4

[2] = test system: HIV-1 isolate 4xAZT/L100I; assay: as above; assay type: cell-based; settings: Human immunodeficiency virus 1, MT4, Table 8; isolate 4XA7T L 1001
Description: The various HIV isolates tested in the Figures are those corresponding to wild-type virus (NL4-3) and the other strains listed by their RT mutations. The three 4xAZT isolates included in the Figures represent AZT drug-resistant variants. […]
as §2, with “Briefly,” for “In this Example, the antiviral and cellular toxicity of NNRTIs was investigated, using the cytopathic cell killing assay described by Yang (Yang et al., "Characteristics of a Group of Non-nucleoside Reverse Transcriptase Inhibitors with Structural Diversity and Potent Anti-Human Immunodeficiency Virus Activity," Leukemia 9:S75-S85 [1995]). Briefly,”
as §3
The in vitro therapeutic index (TI50) was defined as the fold-difference between the EC50 and IC50.

[3] = Table 10 (values in µM), read-out: EC50
[4] = Human immunodeficiency virus 1, MT4, Table 10 (values in µM)
[5] = Human immunodeficiency virus 1, NL43, CEM-SS, Table 7, concentration reducing cell killing or virus production by 50%, HIV-1 WT
[6] = Human immunodeficiency virus 1, NL43, CEM-SS, Table 11, CEMSS/NL4-3, NRVC = reduction in viral CPE not seen (footnote)
[7] = Human immunodeficiency virus 1, NL43, MT4, Table 8, isolate N1.43
[8] = Human immunodeficiency virus 1, MT4, Table 8, isolate 1.1001
[9] = Human immunodeficiency virus 1, MT4, Table 8, isolate 1.74V
[10] = Human immunodeficiency virus 1, MT4, Table 8, isolate Y 188C
[11] = Human immunodeficiency virus 1, MT4, Table 8
[12] = Human immunodeficiency virus 1, MT4, Table 8, isolate K101E
[13] = Human immunodeficiency virus 1, MT4, Table 8, isolate V1081
[14] = Human immunodeficiency virus 1, MT4, Table 8, isolate V 106A
[15] = Human immunodeficiency virus 1, MT4, Table 8, isolate A9SG
[16] = Human immunodeficiency virus 1, MT4, Table 9

Molecule | IC50 (HIV-1 WT RT; Table 7, HIV-1 WT RT) [nM] | IC50 (HIV-1 WT RT; Table 11, WT RT) [nM] | EC50 (WT virus (NL4-3); [5]) [nM] | EC50 (WT virus (NL4-3); [6]) [nM] | EC50 (NL4-3 (WT); [7]) [µM] | EC50 (HIV-1 variant L100I; [8]) [µM] | EC50 (HIV-1 variant L74V; [9]) [nM] | EC50 (HIV-1 variant Y188C; [10]) [µM] | EC50 [1, 11] [nM] | EC50 (HIV-1 variant V179D; [11]) [nM] | EC50 (HIV-1 variant K101E; [12]) [µM] | EC50 (HIV-1 variant V108I; [13]) [µM] | EC50 (HIV-1 variant K103N; [11]) [µM] | EC50 (HIV-1 isolate 4xAZT; [11]) [nM] | EC50 (HIV-1 variant V106A; [14]) [nM] | EC50 (HIV-1 variant A98G; [15]) [nM] | EC50 [2] [nM] | also measured
1-(2,6-difluorobenzyl)-2-(2,6-difluorophenyl)-4-acetamidobenzimidazole [compound 56] | 54700 | 54700 | – | – | – | – | – | – | – | – | – | – | – | – | – | – | – | EC50 (NL4-3 (WT); Table 8, isolate N1.43, read-out: EC50): 1.6 µM; EC50 (NL4-3 (WT); Table 10 (values in µM), isolate NL4-3 (WT), read-out: EC50): 1.97 µM; EC50 (HIV-1 variant L100I; Table 8, isolate 1.1001, read-out: EC50): 2.1 µM; EC50 (HIV-1 variant L100I; Table 10 (values in µM), isolate L1001, read-out: EC50): 3.25 µM; EC50 (HIV-1 variant L74V; Table 8, isolate 1.74V, read-out: EC50): 1200 nM; EC50 (HIV-1 variant Y188C; Table 8, isolate Y 188C, read-out: EC50): > 10 µM; EC50 (HIV-1 variant V179D; Table 8, read-out: EC50): > 10000 nM; EC50 (HIV-1 variant K101E; Table 8, isolate K101E, read-out: EC50): > 20 µM; EC50 (HIV-1 variant V108I; Table 8, isolate V1081, read-out: EC50): 5.3 µM; EC50 (HIV-1 variant K103N; Table 8, read-out: EC50): > 20 µM; EC50 (HIV-1 variant K103N; [3]): > 100 µM; EC50 (HIV-1 variant V106A; Table 8, isolate V 106A, read-out: EC50): > 20000 nM; EC50 (HIV-1 variant A98G; Table 8, isolate A9SG, read-out: EC50): 4300 nM; EC50 (HIV-1 variant Y181C; [3]): > 100 µM; %inhibn (1µM) (HIV-1 WT RT; Table 7, WT HIV-1 RT, 1 µM drug): 24%; EC50 (WT virus (NL4-3); Table 7, concentration reducing cell killing or virus production by 50%, HIV-1 WT): 1480 nM; EC50 (WT virus (NL4-3); Table 11, CEMSS/NL4-3, NRVC = reduction in viral CPE not seen (footnote)): 1480 nM
Fc1cccc(F)c1Cn1c(-c2c(F)cccc2F)nc2c(Br)cccc21 [compound 54, 4-bromo-1-(2,6-difluorobenzyl)-2-(2,6-difluorophenyl)benzimidazole] | 1610 | 1610 | 370 | 370 | – | – | – | – | – | – | – | – | – | – | – | – | – | EC50 (NL4-3 (WT); Human immunodeficiency virus 1, NL43, MT4, Table 10 (values in µM), isolate NL4-3 (WT)): 0.5 µM; EC50 (HIV-1 variant L100I; Human immunodeficiency virus 1, MT4, Table 10 (values in µM), isolate L1001): 0.5 µM; EC50 (HIV-1 variant Y188C; Human immunodeficiency virus 1, MT4, Table 10 (values in µM), isolate Y188C): 3.7 µM; EC50 (HIV-1 variant K101E; Human immunodeficiency virus 1, MT4, Table 10 (values in µM), isolate K101E): > 20 µM; EC50 (HIV-1 variant V108I; Human immunodeficiency virus 1, MT4, Table 10 (values in µM), isolate V108l): 4.2 µM; EC50 (HIV-1 variant K103N; [4]): > 20 µM; EC50 (HIV-1 variant Y181C; [4]): 10.7 µM; inhibition at 1 µM (HIV-1 WT RT; Table 6, WT HIV-1 RT, 1 µM drug, average of two experiments done in triplicates, read-out: %Inhibn (1µM)): 78%; inhibition at 1 µM (HIV-1 WT RT; Table 7, WT HIV-1 RT, 1 µM drug, read-out: %inhibn (1µM)): 78%
CC(=O)N(C)c1cccc2c1nc(-c1c(F)cccc1F)n2Cc1c(F)cccc1F [compound 57, 1-(2,6-Difluorobenzyl)-2-(2,6-difluorophenyl)-4-(N-methylacetamido)-benzimidazole] | – | – | 20 | 20 | 0.04 | 1.7 | 70 | 0.5 | > 10000 | 400 | 0.6 | > 10 | > 10 | > 10000 | 50 | 100 | 1800 | EC50 (WT virus (NL4-3); Human immunodeficiency virus 1, NL43, CEM-SS, cytopathic cell killing assay, HIV-1 WT): 20 nM; -fold more potent than the 4-methyl or 4-amino compounds (WT virus (NL4-3); cytopathic cell killing assay): 20 fold
CNc1cccc2c1nc(-c1c(F)cccc1F)n2Cc1c(F)cccc1F [compound 58, 1-(2,6-Difluorobenzyl)-2-(2,6-difluorophenyl)-4-(N-methylamino)-benzimidazole] | – | – | 1700 | 1700 | 2.6 | 0.4 | 3900 | > 20 | > 20000 | > 10000 | > 20 | > 20 | > 20 | > 10000 | > 20000 | 8500 | 1000 | –
Cc1ccnc2c1NC(=O)c1cccnc1N2C1CC1 [nevirapine, reference compound] | – | – | – | 35 | 0.04 | 0.2 | 40 | > 0.5 | 3000 | 4900 | 1.1 | 0.4 | > 10 | > 500 | > 10000 | 800 | – | EC50 (NL4-3 (WT); Human immunodeficiency virus 1, NL43, MT4, Table 9, isolate NL4.3): 0.04 µM; EC50 (HIV-1 variant L100I; Human immunodeficiency virus 1, MT4, Table 9, isolate L1001): 0.2 µM; EC50 (HIV-1 variant L74V; Human immunodeficiency virus 1, MT4, Table 9, isolate 1.74 V): 40 nM; EC50 (HIV-1 variant Y188C; Human immunodeficiency virus 1, MT4, Table 9, isolate Y188C): > 0.5 µM; EC50 [1, 16]: 3000 nM; EC50 (HIV-1 variant V179D; [16]): 200 nM; EC50 (HIV-1 variant K101E; Human immunodeficiency virus 1, MT4, Table 9, isolate KIOIE): 1.1 µM; EC50 (HIV-1 variant V108I; Human immunodeficiency virus 1, MT4, Table 9, isolate V1081): 0.4 µM; EC50 (HIV-1 variant K103N; [16]): > 10 µM; activity against the K103N mutation / isolate (HIV-1 variant K103N; result in words, cytopathic cell killing assay): ineffective; EC50 (HIV-1 isolate 4xAZT; [16]): > 500 nM; EC50 (HIV-1 variant V106A; Human immunodeficiency virus 1, MT4, Table 9, isolate V106A): > 10000 nM; EC50 (HIV-1 variant A98G; Human immunodeficiency virus 1, MT4, Table 9, isolate A98G): 800 nM; EC50 (HIV-1 variant Y181C; [16]): 4.9 µM
